{"source": "patent US12565485B2", "about": "“Solid forms of 1-((S)-4-((R)-7-(6-amino-4-methyl-3-(trifluoromethyl)pyridin-2-yl)-6-chloro-8-fluoro-2-(((s)-1-methylpyrrolidin-2-yl)methoxy)quinazolin-4-yl)-3-methylpiperazin-1-yl)prop-2-en-1-one” (Genentech, Inc., priority 2022, dated 2026)", "type_in_all_cases": "physicochemical", "key": {"[1]": {"assay": "Anti-solvent addition", "conditions": "Compound A", "protocol": "Anti-solvent addition. A total of 12 anti-solvent addition experiments were carried out. […] The obtained precipitate was isolated for XRPD analysis.\nAnti-solvent addition Compound A. A total of 14 anti-solvent addition experiments were carried out. […] The obtained precipitate was isolated for XRPD analysis."}, "[2]": {"assay": "Form change before and after drying (XRPD)", "protocol": "The wet sample was vacuum dried at RT for 3 hrs. […] A solid was obtained with a yield of 62.2%. […] (peak temperature). Based on the integrals in NMR spectrum, the stoichiometric ratio of adipic acid:freebase was determined to be 1.06. A peak of EtOAc was observed. Around 0.07 molar EtOAc (0.8 wt %) was detected, which was consistent with TGA weight loss.\n(peak), and one small endotherm at 158.8° C. […] Based on the integrals, the stoichiometric ratio of adipic acid:freebase was determined to be 1.65.\n(peak temperature). Based on the integrals, the stoichiometric ratio of adipic acid:freebase was determined to be 1.06. Peak of THF was observed. Around 0.17 molar THF (1.9 wt %) was detected, which was consistent with TGA weight loss.\nCompound B Form A was obtained from an acetone system and the sample was air dried at RT. […] (peak temperature) before the possible overlapped peak with peak temperature at 156.3° C. (FIG. 12). Based on the integrals, the stoichiometric ratio of fumaric acid:freebase was determined to be 1.03. A peak of acetone was observed and approximately 0.49 molar acetone (4.4 wt %) was detected. The HPLC purity of Compound B Form A was determined to be 93.56 area %. […] Around 0.39 molar acetone (3.5 wt %) was still detected. One endotherm at 58.7° C. and an overlapped peak with peak temperature at 157.1° C. were still observed on the sample obtained after heating. The first endotherm might be caused by re-adsorption of moisture. Since ˜3.5 wt % acetone was still detected from NMR, Compound B Form A is expected to be an acetone/H2O co-solvate.\nCompound C Form A was obtained from EtOAc system and the sample was air dried at RT. […] HPLC purity of Compound C Form A was determined to be 95.18 area %."}, "[3]": {"assay": "Solid vapor diffusion", "conditions": "RT; for Result: Compound A", "protocol": "Solid vapor diffusion Compound A. Solid vapor diffusion experiments were conducted using 12 different solvents. […] The 20-mL vial was sealed with a cap and kept at RT allowing solvent vapor to interact with the sample."}, "[4]": {"assay": "Slurry conversion experiments (XRPD of isolated solids)", "conditions": "for Slurry conversion result (XRPD form): different solvent systems", "protocol": "Slurry conversion experiments were conducted at RT in different solvent systems. About 15˜20 mg of freebase starting material (Compound 1) was suspended in 0.5 mL of solvent in an HPLC vial. Solids were isolated for XRPD analysis after magnetically stirring at RT.\nSlurry at 5°. Slurry conversion experiments were conducted at 5° C. in different solvent systems. About 15˜20 mg of freebase starting material (Compound 1) was suspended in 0.5 mL of solvent in an HPLC vial. Solids were isolated for XRPD analysis after magnetically stirring at 5° C.\nSlurry at 50°. Slurry conversion experiments were conducted at 50° C. in different solvent systems. About 20 mg of freebase starting material (Compound 1) was suspended in 0.5 mL of solvent in an HPLC vial. Solids were isolated for XRPD analysis after magnetical stirring at 50° C.\nSlurry at RT for Compound A. Slurry conversion experiments were conducted at RT in different solvent systems. […] Solids were isolated for XRPD analysis after magnetic stirring at RT.\nSlurry at 50° for Compound A. Slurry conversion experiments were conducted at 50° C. in different solvent systems. […] Solids were isolated for XRPD analysis after magnetic stirring at 50° C."}, "[5]": {"assay": "VH-XRPD analysis / transitions of forms at varying relative humidity", "conditions": "ambient humidity levels 40%", "description": "FIG. 19. The sample then reverts to the original form upon reaching 30% RH. […] Transitions of Forms of Compound A at varying RH."}}}
{"smiles": "C=CC(=O)N1CCN(c2nc(OC[C@@H]3CCCN3C)nc3c(F)c(-c4nc(N)cc(C)c4C(F)(F)F)c(Cl)cc23)[C@@H](C)C1", "note": "[Compound A Form A]", "values": [{"measurement": "Result", "setting": "[1]; solvent 2-MeTHF, anti-solvent n-Heptane", "result": "Gel"}, {"measurement": "Result", "setting": "[1]; solvent DCM, anti-solvent MTBE", "result": "Compound A Form A"}, {"measurement": "Result", "setting": "[1]; solvent DCM, anti-solvent Toluene", "result": "Compound A Form B"}, {"measurement": "Result", "setting": "[1]; solvent DCM, anti-solvent n-Heptane", "result": "Compound A Form A"}, {"measurement": "Result", "setting": "[1]; solvent DMSO, anti-solvent EtOAc", "result": "Clear"}, {"measurement": "Result", "setting": "[1]; solvent EtOH, anti-solvent Anisole", "result": "Clear solution"}, {"measurement": "Result", "setting": "[1]; solvent EtOH, anti-solvent MTBE", "result": "Gel"}, {"measurement": "Result", "setting": "[1]; solvent EtOH, anti-solvent n-Heptane", "result": "Compound A Form A"}, {"measurement": "Result", "setting": "[1]; solvent MeOH, anti-solvent MTBE", "result": "Gel"}, {"measurement": "Result", "setting": "[1]; solvent MeOH, anti-solvent Toluene", "result": "Compound A Form A"}, {"measurement": "Result", "setting": "[1]; solvent THF, anti-solvent EtOAc", "result": "Compound A Form A"}, {"measurement": "Result", "setting": "[1]; solvent THF, anti-solvent MTBE", "result": "Compound A Form A"}, {"measurement": "Result", "setting": "[1]; solvent THF, anti-solvent Toluene", "result": "Compound A Form A"}, {"measurement": "Result", "setting": "[1]; solvent THF, anti-solvent n-Heptane", "result": "Compound A Form A"}, {"measurement": "Form change before and after drying", "setting": "[2]; air dried at RT", "result": "No form change was observed"}, {"measurement": "Form change before and after drying", "setting": "[2]; vacuum dried at RT for 3 hrs", "result": "No form change was observed"}, {"measurement": "Result", "setting": "[3]; 1,4-Dioxane vapor", "result": "Compound A Form A"}, {"measurement": "Result", "setting": "[3]; ACN vapor", "result": "Compound A Form A"}, {"measurement": "Result", "setting": "[3]; Acetone vapor", "result": "Compound A Form A"}, {"measurement": "Result", "setting": "[3]; DCM vapor", "result": "Compound A Form A"}, {"measurement": "Result", "setting": "[3]; DMF vapor", "result": "Compound A Form A"}, {"measurement": "Result", "setting": "[3]; DMSO vapor", "result": "Compound A Form A"}, {"measurement": "Result", "setting": "[3]; EtOAc vapor", "result": "Compound A Form A"}, {"measurement": "Result", "setting": "[3]; EtOH vapor", "result": "Compound A Form A"}, {"measurement": "Result", "setting": "[3]; H2O vapor", "result": "Compound A Form A"}, {"measurement": "Result", "setting": "[3]; IPA vapor", "result": "Compound A Form A"}, {"measurement": "Result", "setting": "[3]; MeOH vapor", "result": "Compound A Form A"}, {"measurement": "Result", "setting": "[3]; THF vapor", "result": "Compound A Form A"}, {"measurement": "Solid vapor diffusion result (XRPD form)", "setting": "[3]; 12 different solvents", "result": "Compound A Form A was obtained"}, {"measurement": "Slurry conversion result (XRPD form)", "setting": "[4]; 50° C.", "result": "Compound A Form A was obtained"}, {"measurement": "Result", "setting": "[4]; Compound A slurry at 50° C., Anisole", "result": "Compound A Form A"}, {"measurement": "Result", "setting": "[4]; Compound A slurry at 50° C., CPME", "result": "Compound A Form A"}, {"measurement": "Result", "setting": "[4]; Compound A slurry at 50° C., EtOAc", "result": "Compound A Form A"}, {"measurement": "Result", "setting": "[4]; Compound A slurry at 50° C., IPAc", "result": "Compound A Form A"}, {"measurement": "Result", "setting": "[4]; Compound A slurry at 50° C., MIBK", "result": "Compound A Form A"}, {"measurement": "Result", "setting": "[4]; Compound A slurry at 50° C., MTBE", "result": "Compound A Form A"}, {"measurement": "Result", "setting": "[4]; Compound A slurry at 50° C., Toluene", "result": "Compound A Form A"}, {"measurement": "Result", "setting": "[4]; Compound A slurry at 50° C., n-Heptane", "result": "Compound A Form A"}, {"measurement": "Result", "setting": "[4]; Compound A slurry at RT, 1,4-Dioxane", "result": "Compound A Form A"}, {"measurement": "Result", "setting": "[4]; Compound A slurry at RT, 1,4-Dioxane/IPAc, 1:3", "result": "Compound A Form A"}, {"measurement": "Result", "setting": "[4]; Compound A slurry at RT, 1,4-Dioxane/n-Heptane, 1:3", "result": "Compound A Form A"}, {"measurement": "Result", "setting": "[4]; Compound A slurry at RT, 2-MeTHF/Toluene, 1:4", "result": "Compound A Form A"}, {"measurement": "Result", "setting": "[4]; Compound A slurry at RT, ACN", "result": "Compound A Form A"}, {"measurement": "Result", "setting": "[4]; Compound A slurry at RT, Acetone", "result": "Compound A Form A"}, {"measurement": "Result", "setting": "[4]; Compound A slurry at RT, Acetone/Anisole, 1:3", "result": "Compound A Form A"}, {"measurement": "Result", "setting": "[4]; Compound A slurry at RT, Acetone/n-Heptane, 1:3", "result": "Compound A Form A"}, {"measurement": "Result", "setting": "[4]; Compound A slurry at RT, DCM/IPA, 1:4", "result": "Compound A Form A"}, {"measurement": "Result", "setting": "[4]; Compound A slurry at RT, DMSO/H2O, 1:6", "result": "Clear solution"}, {"measurement": "Result", "setting": "[4]; Compound A slurry at RT, EtOH/n-Heptane, 1:6", "result": "Compound A Form A"}, {"measurement": "Result", "setting": "[4]; Compound A slurry at RT, H2O", "result": "Clear solution"}, {"measurement": "Result", "setting": "[4]; Compound A slurry at RT, H2O/ACN, 1:4", "result": "Gel"}, {"measurement": "Result", "setting": "[4]; Compound A slurry at RT, H2O/IPA, 1:4", "result": "Gel"}, {"measurement": "Result", "setting": "[4]; Compound A slurry at RT, IPA", "result": "Compound A Form A"}, {"measurement": "Result", "setting": "[4]; Compound A slurry at RT, MEK", "result": "Compound A Form A"}, {"measurement": "Result", "setting": "[4]; Compound A slurry at RT, MEK/MTBE, 1:3", "result": "Compound A Form A"}, {"measurement": "Result", "setting": "[4]; Compound A slurry at RT, MEK/n-Heptane, 1:3", "result": "Compound A Form A"}, {"measurement": "Result", "setting": "[4]; Compound A slurry at RT, MeOH/CPME, 1:6", "result": "Compound A Form A"}, {"measurement": "Result", "setting": "[4]; Compound A slurry at RT, THF/H2O, 1:6", "result": "Clear solution"}, {"measurement": "Slurry conversion result (XRPD form)", "setting": "[4]; RT", "result": "adipate Type A was obtained"}, {"measurement": "Form after exposure to ambient humidity", "setting": "[5]", "result": "Compound A Form D was formed"}]}
